Entries after “also recorded” stand apart in the source; their conditions may differ.
Experiments:
[1] = molecular target: T1, mutant huntingtin aggregates (HDex1Q68 fused to ECFP/EYFP) (Homo sapiens, UniProt P42858, INS38QQQQQQQQQQQQQQQQQQQQQQQQQQQQQQQQQQQQQQQQQQQQQQQ); assay: Cellular FRET aggregation assay in stable Tet-off CHO-AA8/Q68-Q68 cells; assay type: cell-based; conditions: 48 h, 2% DMSO
Protocol: To determine the potential of possibly inhibiting substances the inventors performed dose response assays at concentrations ranging from 1, to 100 μM.
Screening was performed in 96-well plates (greiner bio-one) containing 1×10^4 cells/well of the stably inducible tet off cell lines htt-mut (six-fold) and CHO-AA8 line (three fold) for background control. Simultaneously, each compound was checked for its potential autofluorescence.
Two stable inducible CHO Tet off cell lines were constructed expressing simultaneously wildtype (CHO-AA8/Q17-Q17) or mutant (CHO-AA8/Q68-Q68) huntingtin fragments fused to ECFP or EYFP (FIG. 1B) after withdrawal of doxicycline (dox). Basal and induced expression levels of huntingtin fusion proteins were examined by Western blot analysis at different time intervals (4, 24, 48, and 72 hours). […] For the screening approach stable inducible huntingtin expressing cell lines were seeded in 96-well plates and the fluorescence intensities were measured with a fluorescence plate reader.
The test compounds were mixed in a fresh doxicycline-free medium with 2% DMSO and added to the Tet off cell lines two to three hours after seeding and attachment of the cells.
(§1) The FRET-measurement was performed 48 h later.
Subsequently, a second screening round was performed at concentration range 1, 3, and 10 μM, respectively.

CHO-AA8/Q68-Q68 cells = assay: Propidium iodide exclusion assay (viability, cell number) following the FRET assay
Protocol: CHO-AA8/Q68-Q68, CHO-AA8/Q17-Q17 and CHO-AA8 cells were seeded in 96 well plates. After attachment of the cells, the medium was exchanged for Ham's F 12 medium containing 10% doxicycline free FBS and 2% DMSO supplemented with compounds. After 48 h the fluorescence intensities of cells were measured using a fluorescence plate reader (Fluoroscan Ascent, Thermo Scietific) and filtersets for CFP (ex 444 nm, em 485 nm), YFP(ex 485 nm, em 538 nm) and FRET (ex 444 nm, em 538 nm). After correction of background fluorescence (subtraction of CHO-AA8 cell fluorescence intensities) the FRET signal was determined using the method: FA=(FRET-a*YFP)/CFP with a=0.11 (Zal u. Gascoigne 2004, Zal et al. 2002). In following, the viability of cells was measured using a propidium iodide exclusion assay (Sattler et al. 1997). PI was added to the cells at final concentration of 0.15 mg/ml. After 15 minutes the PI fluorescence intensity was measured (ex 530 nm, em 620 nm). The cells were then lysed with 0.5% Triton X-100 (TX100) and the PI fluorescence intensity was measured again. Viability of cells was calculated as viability=1−(PIbefore TX100/PIafter TX100).
as §1

[2] = tested on: proteasome (chymotrypsin activity); assay: Proteasome activity, hydrolysis of Suc-LLVY-AMC in CHO-AA8/Tet-Off cells; assay type: cell-based; conditions: 24 h
Protocol: The concentration-dependent effect of khayanthone, 17-AAG, Gedunin, and Lactacystin on proteasome activity was tested using a non-recombinant CHO Tet-Off cell line. Cells were incubated with the given compounds for 24 h. Subsequently, proteasome activities were measured by a fluoroscan according to the degradation rate of a fluorogenic substrate (Suc-LLVY-AMC). In correlation to DMSO treated controls khayanthone led to an increase of proteasome activity about 40-50% in CHO-AA8/Tet-Off cells.
To confirm this we examined the chymotrypsin activity of the proteasome under the influence of khayanthone and compared data with known substances influencing the proteasomes' activity (gedunin, lactacystin, 17-AAG) (FIG. 4). Adminstration of the selected substances was performed for 24 h, and subsequently chymotrypsin activity of the UPS was determined by measuring the hydrolysis of a fluorogenic reporter (Suc-LLVY-AMC, Biomol).

HSP40 = assay: Western blot of heat shock protein expression in SH-SY5Y cells; assay type: cell-based; conditions: SH-SY5Y cell line, increasing concentration
Protocol: (§2) Utilizing Western-blot analysis concentration-dependent effects of khayanthone on protein expression of HSP40, HSP70, and HSP90 were detected. Immuno detection was performed using HSP specific monoclonal antibodies, respectively.
(§3) We examined effects of khayanthone on the expression of heat shock proteins, preferentially HSP40, HSP70 and HSP90, because of their impacts in neurodegenerative disease and cancer. Heat shock protein expression was determined in neuronal cells (SH-SY5Y cell line) by western blot analysis.

HSP70 = assay: as above; assay type: cell-based; conditions: SH-SY5Y cell line, increasing concentration
Protocol: as §2, §3

HSP90 = assay: as above; assay type: cell-based; conditions: SH-SY5Y cell line, increasing concentration
Protocol: as §2, §3

[3] = tested on: flies expressing Htt-Exon-1Q93 in all neurons; assay: Climbing assay in a Drosophila model of HD; assay type: in vivo
Protocol: (A) Expression of the htt proteins in transgenic flies is driven by the bipartite expression system upstream activator sequence (UAS)-GAL4 (yeast transcriptional activator). Stocks w; P(w^+mC; w+; elav−GAL4/CyO) and w; P(w+mC=UAS-Q93httexon1) were crossed in order to obtain flies expressing mutant htt fragments in all neurons.
(B, C) Flies expressing Htt-Exon-1Q93 were fed with khayanthone (100 μM, 250 μM) or DMSO supplemented food. Effects of khayanthone on flies' motor ability were measured with the climbing assay. For this purpose flies were placed in a vial, then the height half of them were able to climb from the bottom within 60 sec was determined. In addition the time was measured which half of them needed to climb up 6 cm. […] Each curve represents a population of ˜40 flies. Error bars represent the SD of 5 repeats on each measuring point.
Flies were mated at 25° C. in vials containing standard food supplemented with different concentrations of the compound tested. Adults were transferred to vials containing fresh food supplemented with different concentrations of khayanthone (100 μM, 250 μM, and DMSO control) every 3 days after eclosion.
Effects of khayanthone on the flies' motor ability were measured with the climbing assay. For this purpose flies were placed in a vial, then the height, which half of them were able to climb from the bottom within 60 sec, was determined. In addition, the time was measured which half of them needed to climb up 6 cm. The assays were repeated five times on each population sample.

[4] = molecular target: T1, mutant huntingtin aggregates (HDex1Q68 fused to ECFP/EYFP); assay: Cellular FRET aggregation assay in stable Tet-off CHO-AA8/Q68-Q68 cells; assay type: cell-based
[5] = after day 18, food with 100 μM, 250 μM

T1 sequence (P42858 1-88, stated change not applied): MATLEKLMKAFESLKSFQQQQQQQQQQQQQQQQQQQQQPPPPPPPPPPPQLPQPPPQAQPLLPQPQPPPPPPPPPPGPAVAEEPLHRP

CC(=O)O[C@H]1C[C@@H](OC(C)=O)C(C)(C)C2C[C@@H](OC(C)=O)[C@]3(C)C(CC[C@@]4(C)[C@H]([C@H]5CCOC5)C(=O)[C@H]5O[C@]543)[C@]21C (stereo partly shown) [S1, khayanthone]
FRET-signal (effect in words) [1]: decreases | Cell number (effect in words) (CHO-AA8/Q68-Q68 cells): unaffected | highest chymotrypsin activity ([2]; 1 μM): about 40% | chymotrypsin activities (decline with increasing concentrations) ([2]; 3, 10 μM): ~10% | increase of proteasome activity ([2]; CHO-AA8/Tet-Off cells, in correlation to DMSO treated controls): 40-50% | HSP40 protein expression (HSP40): decreased expression; also recorded: slight decrease | HSP70 protein expression (HSP70): decreased expression; also recorded: slight decrease | HSP90 protein expression (HSP90): decreased expression; also recorded: slight decrease | climbing distance in 60 sec (height half of the flies climb) [3, 5]: ~50 % of the initial distance | time half of the flies need for a 6 cm distance [3, 5]: 2.3 times of the initial time | difference in climbing between treated and untreated flies ([3]; until day 18): no detectable difference | motor ability / mobility compared to DMSO treated flies (in words) ([3]; with increasing age, food with 100 μM, 250 μM): improves significantly motor deficits; also recorded: maintain an improved mobility | Number of mutant huntingtin aggregates (fluorescence microscopy images) [4]: decrease with increasing compound concentration
